From patent US8772268B2, “Bisphosphonamidate prodrugs and uses thereof” (The Johns Hopkins University, priority 2010, dated 2014)
Read-outs that look alike come from different tables or passages of the source.

Experiments:
[1] = system: MDA-MB-231/ATCC; assay: NCI-60 DTP Human Tumor Cell Line Screen; format: cell-based; conditions: Breast Cancer, 48 h
[2] = system: MCF7; assay: NCI-60 DTP Human Tumor Cell Line Screen; format: cell-based; conditions: MCF7, Breast Cancer, 48 h
[3] = system: RPMI-8226; assay: NCI-60 DTP Human Tumor Cell Line Screen; format: cell-based; conditions: RPMI-8226, Leukemia, 48 h
[4] = system: HCC-2998; assay: NCI-60 DTP Human Tumor Cell Line Screen; format: cell-based; conditions: HCC-2998, Colon Cancer, 48 h
[5] = system: HCT-116; assay: NCI-60 DTP Human Tumor Cell Line Screen; format: cell-based; conditions: HCT-116, Colon Cancer, 48 h
[6] = system: UO-31; assay: NCI-60 DTP Human Tumor Cell Line Screen; format: cell-based; conditions: UO-31, Renal Cancer, 48 h
[7] = system: IGROV1; assay: NCI-60 DTP Human Tumor Cell Line Screen; format: cell-based; conditions: IGROV1, Ovarian Cancer, 48 h
[8] = system: NCI-H226; assay: NCI-60 DTP Human Tumor Cell Line Screen; format: cell-based; conditions: NCI-H226, Non-Small Cell Lung Cancer, 48 h
[9] = system: MOLT-4; assay: NCI-60 DTP Human Tumor Cell Line Screen; format: cell-based; conditions: MOLT-4, Leukemia, 48 h
[10] = system: P. falciparum (NF54); assay: Antimalarial [3H]-hypoxanthine incorporation assay; format: cell-based, Plasmodium falciparum; conditions: P. falciparum (NF54); read-out: IC50
Experimental: Plasmodium falciparum culture. NF54 P. falciparum parasites were maintained in O+ positive erythrocytes (obtained weekly from a rotating pool of screened healthy donors) in complete medium containing RPMI (Sigma), 25 mM N-2-hydroxyethylpiperazine-N′-2-ethanesulfonic acid (HEPES; Sigma), 27 mM sodium bicarbonate (Sigma) and 10% heat-inactivated male O+ serum in non-vented flasks. Hematocrit was maintained at 2.4%. Flasks were gassed with a mixture of 3% oxygen, 4% carbon dioxide, 93% nitrogen. Parasitemia was maintained at 0.1-5% by changing medium and erythrocytes two to three times a week.
Antimalarial activity was measured using a [^3H]-hypoxanthine incorporation assay as described previously (Desjardins et al., Antimicrob. Agents Chemother., vol. 16, p. 710, 1979; Milhous et al., Antimicrob. Agents Chemother., vol. 27, np. 525, 1985). […] For surveys, each concentration was assayed in triplicate while in expansions, each concentration was assayed in quadruplicate. To each well, 0.64 μCi of [^3H]-hypoxanthine (10-30 Ci/mmol; Perkin Elmer) was added and the plate was incubated for an additional 20 to 24 h. Samples from each well were harvested on filter paper and tritium counts were measured on the Beckmann Coulter LS6500 scintillation counter. […] Values considered as outliers according to Chauvenet's criterion were discarded and dropped from analysis. One survey and at least one expansion was performed for each compound.

[11] = system: A549 NSCLC cells; assay: Trypan blue cell count assay, A549; conditions: for EC50: read-out: EC50 (decreased cell number by 50% compared to control), A549, trypan blue
Experimental: A549 NSCLC cells were plated at 1.7×10^4 cells per well in flat bottom 12-well plates. Cells were dosed as described above. At 24, 48 or 72 hours following drug treatment, the media was collected, and the cells were washed with 200 μL PBS. Each well was trypsinized with 200 μL trypsin for 3-5 min. The trypsin reaction was quenched with an equal volume of media. All supernatants and washes were combined and spun at 1,500 rpm for 5 min. Supernatant was decanted, and the cells were resuspended in 200 μL media. The cells were diluted 1:1 in 0.04% trypan blue and counted using a cytometer. The absolute number of cells was determined at each drug concentration. The cell number for each concentration was converted to percent of control for each time point, and plotted using GraphPad Prism 4.0. The EC50 was calculated as the concentration of drug that caused a 50% decrease in number of cells compared to control.
The number of viable cells at each dose was determined at 0, 24, 48 and 72 hours following drug treatment and plotted as a percent of control (FIG. 6A).

[12] = system: U251; assay: NCI-60 DTP Human Tumor Cell Line Screen; format: cell-based; conditions: U251, CNS Cancer, 48 h
[13] = system: HL-60(TB); assay: NCI-60 DTP Human Tumor Cell Line Screen; format: cell-based; conditions: Leukemia, 48 h
[14] = system: SR; assay: NCI-60 DTP Human Tumor Cell Line Screen; format: cell-based; conditions: Leukemia, 48 h
[15] = system: HCT-15; assay: NCI-60 DTP Human Tumor Cell Line Screen; format: cell-based; conditions: HCT-15, Colon Cancer, 48 h
[16] = system: OPVCAR-5; assay: NCI-60 DTP Human Tumor Cell Line Screen; format: cell-based; conditions: OPVCAR-5, Ovarian Cancer, 48 h
[17] = system: OVCAR-3; assay: NCI-60 DTP Human Tumor Cell Line Screen; format: cell-based; conditions: OVCAR-3, Ovarian Cancer, 48 h
[18] = system: NCI/ADR-RES; assay: NCI-60 DTP Human Tumor Cell Line Screen; format: cell-based; conditions: Ovarian Cancer, 48 h
[19] = system: SF-539; assay: NCI-60 DTP Human Tumor Cell Line Screen; format: cell-based; conditions: SF-539, CNS Cancer, 48 h
[20] = system: NCI-H522; assay: NCI-60 DTP Human Tumor Cell Line Screen; format: cell-based; conditions: NCI-H522, Non-Small Cell Lung Cancer, 48 h

For `CN(CCCCCl)P(=O)(OCc1ccc([N+](=O)[O-])cc1)C(Cl)(Cl)P(=O)(OCc1ccc([N+](=O)[O-])cc1)N(C)CCCCCl` (stereo not shown) [compound 14], which Log10GI50 [1] is on record?
The Log10GI50 was −5.51.

What about the Log10LC50 [1] of the same compound?
The Log10LC50 was greater than −4.00.

And the Log10TGI [1]?
The Log10TGI was greater than −4.00.

And the Log10GI50 [2]?
The Log10GI50 was −5.47.

And the Log10LC50 [2]?
Its Log10LC50 is greater than −4.00.

And the Log10TGI [2]?
The Log10TGI was −4.82.

And the Log10GI50 [3]?
The Log10GI50 was −5.57.

What about the Log10LC50 [3] of the same compound?
Its Log10LC50 is greater than −4.00.

And the Log10TGI [3]?
The Log10TGI was greater than −4.00.

And the Log10GI50 [4]?
The Log10GI50 was −5.25.

And the Log10LC50 [4]?
The Log10LC50 was −4.46.

And the Log10TGI [4]?
The Log10TGI was greater than −4.00.

What about the Log10GI50 [5] of the same compound?
Its Log10GI50 is −5.58.

And the Log10LC50 [5]?
The Log10LC50 was greater than −4.00.

What about the Log10TGI [5] of the same compound?
The Log10TGI was greater than −4.00.

And the Log10GI50 [6]?
Its Log10GI50 is −5.76.

And the Log10LC50 [6]?
Its Log10LC50 is greater than −4.00.

What about the Log10TGI [6] of the same compound?
The Log10TGI was greater than −4.00.

What about the Log10GI50 [7] of the same compound?
The Log10GI50 was −5.39.

What about the Log10LC50 [7] of the same compound?
The Log10LC50 was greater than −4.00.

What about the Log10TGI [7] of the same compound?
The Log10TGI was greater than −4.00.

And the Log10GI50 [8]?
The Log10GI50 was −5.52.

And the Log10LC50 [8]?
The Log10LC50 was greater than −4.00.

What about the Log10TGI [8] of the same compound?
Its Log10TGI is greater than −4.00.

And the Log10GI50 [9]?
The Log10GI50 was −5.53.

And the Log10LC50 [9]?
The Log10LC50 was greater than −4.00.

What about the Log10TGI [9] of the same compound?
Its Log10TGI is −5.04.

What about the IC50 [10] of the same compound?
Its IC50 is 0.98 ± 0.21 µM.

And the “new growth in fresh media without drug” value ([11]; 72 h treatment with 30, 100 and 300 μM, then 48 h drug-free)?
Its value is “No new growth was observed”.

What about the “cell viability reduced by” value ([11]; A549, 24 h, highest drug concentration tested) of the same compound?
Its value is 57%.

What about the “EC50 (trypan blue) fold higher than IC50 (MTS)” value ([11]; A549, 48 h) of the same compound?
The value was roughly 1.6 fold.

And the “viability of A549 cells, of control” value ([11]; higher doses over 24 h)?
The value was “above 50%”.

And the EC50 ([11]; 48 h)?
The EC50 was 19 ± 4 µM.

And the EC50 ([11]; 72 h)?
The EC50 was 16 ± 1 µM.

And the Log10GI50 [12]?
The Log10GI50 was −5.45.

And the Log10LC50 [12]?
Its Log10LC50 is greater than −4.00.

What about the Log10TGI [12] of the same compound?
The Log10TGI was greater than −4.00.

And the Log10GI50 [13]?
The Log10GI50 was −5.39.

And the Log10LC50 [13]?
The Log10LC50 was greater than −4.00.

And the Log10TGI [13]?
Its Log10TGI is greater than −4.00.

What about the Log10GI50 [14] of the same compound?
The Log10GI50 was −5.43.

And the Log10LC50 [14]?
Its Log10LC50 is greater than −4.00.

What about the Log10TGI [14] of the same compound?
The Log10TGI was greater than −4.00.

And the Log10GI50 [15]?
Its Log10GI50 is −5.41.

What about the Log10LC50 [15] of the same compound?
Its Log10LC50 is greater than −4.00.

And the Log10TGI [15]?
Its Log10TGI is greater than −4.00.

What about the Log10GI50 [16] of the same compound?
The Log10GI50 was −5.45.

What about the Log10LC50 [16] of the same compound?
The Log10LC50 was greater than −4.00.

And the Log10TGI [16]?
The Log10TGI was greater than −4.00.

And the Log10GI50 [17]?
The Log10GI50 was −5.40.

And the Log10LC50 [17]?
The Log10LC50 was greater than −4.00.

What about the Log10TGI [17] of the same compound?
Its Log10TGI is greater than −4.00.

What about the Log10GI50 [18] of the same compound?
The Log10GI50 was −5.58.

What about the Log10LC50 [18] of the same compound?
The Log10LC50 was greater than −4.00.

And the Log10TGI [18]?
The Log10TGI was greater than −4.00.

And the Log10GI50 [19]?
The Log10GI50 was −5.44.

What about the Log10LC50 [19] of the same compound?
The Log10LC50 was greater than −4.00.

What about the Log10TGI [19] of the same compound?
Its Log10TGI is greater than −4.00.

And the Log10GI50 [20]?
The Log10GI50 was −5.66.

And the Log10LC50 [20]?
Its Log10LC50 is greater than −4.00.

And the Log10TGI [20]?
The Log10TGI was −5.11.
